# Patent US8431564B2 (Merck Sharp & Dohme B.V., priority 2009, dated 2013)
# Target: T1, human FSH receptor (Homo sapiens, UniProt P23945)
# T1 construct: expressed in transfected cells; host or cells: CHO (Chinese Hamster Ovary) cells, stably transfected, cotransfected with CRE-luciferase reporter
# T1 sequence (P23945 18-695): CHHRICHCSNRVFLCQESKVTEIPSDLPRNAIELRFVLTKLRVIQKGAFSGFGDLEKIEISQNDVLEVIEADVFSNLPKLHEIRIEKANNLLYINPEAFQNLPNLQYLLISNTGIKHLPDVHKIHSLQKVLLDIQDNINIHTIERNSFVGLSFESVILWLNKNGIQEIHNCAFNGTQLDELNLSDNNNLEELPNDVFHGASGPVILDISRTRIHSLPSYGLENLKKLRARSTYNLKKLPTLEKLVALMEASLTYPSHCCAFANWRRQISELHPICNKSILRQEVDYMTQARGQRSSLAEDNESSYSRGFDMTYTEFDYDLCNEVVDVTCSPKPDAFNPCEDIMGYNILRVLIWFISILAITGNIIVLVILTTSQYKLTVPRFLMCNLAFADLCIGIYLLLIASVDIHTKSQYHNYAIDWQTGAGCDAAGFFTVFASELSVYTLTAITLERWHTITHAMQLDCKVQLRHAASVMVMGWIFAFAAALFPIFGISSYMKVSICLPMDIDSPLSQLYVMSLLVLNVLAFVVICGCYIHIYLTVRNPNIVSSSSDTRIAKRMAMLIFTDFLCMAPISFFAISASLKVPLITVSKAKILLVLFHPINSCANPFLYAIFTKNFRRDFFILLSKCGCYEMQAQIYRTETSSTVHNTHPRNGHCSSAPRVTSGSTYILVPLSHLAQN
# Experiment: Agonistic activity at the human FSH receptor expressed in CHO cells (CRE-luciferase reporter)
# Format: cell-based
# Settings: CHO cells stably transfected with human FSH receptor and CRE/luciferase reporter; 4 hours incubation; pEC50 is -log EC50; read-out: hFSHRago (CHO luc) pEC50 (converted)
# Text: The term EC50 means the concentration of the test compound that elicits half-maximal (50%) stimulation compared to the compound's maximally attainable effect. pEC50 is the negative log of EC50. The values can be determined e.g. in a cell line transfected with a FSH receptor gene and cotransfected with a cAMP responsive element/promoter directing the expression of a reporter gene. For the determination a software program such as MathIQ (version 2.0, ID Business Solutions Limited) can be used.
# Agonistic activity of the compounds at the human FSH receptor was determined in Chinese Hamster Ovary (CHO) cells stably transfected with the human FSH receptor and cotransfected with a cAMP responsive element (CRE)/promotor directing the expression of a firefly luciferase reporter gene. Binding of the compounds to the Gs protein-coupled FSH receptor will result in an increase of cAMP, which in turn will induce an increased transactivation of the luciferase reporter. Cells (7,500 cells/well of a 384 well plate) were incubated in Dulbecco' minimal essential F12 modified medium (Invitrogen), supplemented with 1 μg/ml bovine insulin, 5 μg/ml human apo-transferrin, 80 U/ml penicillin G and 80 μg/ml streptomycin with the test compounds (concentration between 0.0316 nM and 10.0 μM) in duplicate in a humidified atmosphere (95%) at 5-7% CO2 and 37° C. The final concentration of DMSO was 1%. After 4 hours of incubation, plates were allowed to adjust to room temperature for 1 hour. Then, Luclite (PerkinElmer) solution was added to the wells and cells were allowed to lyse for at least 1 hour at room temperature. Subsequently, luciferase activity was measured in a luminescence counter. The signal is expressed as counts per second (cps). The EC50 (concentration of the test compound that elicits half-maximal (50%) luciferase stimulation compared to the compound's maximally attainable effect) and efficacy values (maximal effect of the test compound as percentage of the maximal effect of recombinant human FSH) of the compounds were determined using the software program MathIQ (version 2.0, ID Business Solutions Limited). pEC50 data (pEC50 is −log EC50) are indicated at the synthesis examples.
row,SMILES,EC50 [nM]
1,"COc1cc2c(cc1-c1cccnc1)-c1c(C3=CCSCC3)c3c(n1CC2)C(=O)N(C(C)(C)C)CCCC3 [Compound 25d, 9-tert-butyl-2-(3-pyridyl)-14-(3,6-dihydro-2H-thiopyran-4-yl)-3-methoxy-5,6,10,11,12,13-hexahydroazocino[4′,3′:4,5]pyrrolo[2,1-a]isoquinolin-8(9H)-one]",10.7
2,"COc1cc2c(cc1C(=O)NCCN1CCOCC1)-c1c(-c3cccs3)c3c(n1CC2)C(=O)N(C(C)(C)C)CCCC3 [Compound 26c1, 9-tert-butyl-3-methoxy-N^2-(2-morpholinoethyl)-14-(thiophen-2-yl)-5,6,10,11,12,13-hexahydroazocino[4′,3′:4,5]pyrrolo[2,1-a]isoquinolin-8(9H)-one-2-carboxamide]",1.78
3,COc1cc2c(cc1OC(C)C)-c1c(-c3cccs3)c3c(n1CC2)C(=O)N(C(C)C)CCC3 [Compound 6f],50.1
4,COc1cc2c(cc1OC(C)C)-c1c(-c3ccc(F)cc3)c3c(n1CC2)C(=O)N(C(C)(C)C)CCOC3 [Compound 18g],20
5,"COc1cc2c(cc1-c1cccnc1)-c1c(-c3cncs3)c3c(n1CC2)C(=O)N(C(C)(C)C)CCCOC3 [Compound 8f, 9-tert-butyl-3-methoxy-2-pyridin-3-yl-15-(1,3-thiazol-5-yl)-5,6,9,10,11,12-hexahydro[1,5]oxazonino[8′,7′:4,5]pyrrolo[2,1-a]isoquinolin-8(14H)-one]",14.1
6,"COc1cc2c(cc1-n1cc(C[C@@H](O)CO)nn1)-c1c(-c3cccs3)c3c(n1CC2)C(=O)N(C(C)(C)C)CCCC3 [Compound 20g, (R)-9-tert-butyl-14-(thien-2-yl)-2-(4-(2,3-dihydroxypropyl)-1H-1,2,3-triazol-1-yl)-3-methoxy-5,6,10,11,12,13-hexahydroazocino[4′,3′:4,5]pyrrolo[2,1-a]isoquinolin-8(9H)-one]",3.24
7,"COc1cc2c(cc1OC(C)C)-c1c(Br)c3c(n1CC2)C(=O)N(C(C)(C)C)CCOC3 [Compound 18d, 9-tert-butyl-3-methoxy-2-isopropoxy-14-bromo-5,6,10,11-tetrahydro-9H-[1,4]oxazocino[7′,6′:4,5]pyrrolo[2,1-a]isoquinolin-8(13H)-one]",126
8,"COc1cc2c(cc1OC(C)C)-c1c(-c3ccncc3)c3c(n1CC2)C(=O)N(C(C)(C)C)CCOC3 [Compound 18f, 9-tert-butyl-3-methoxy-2-isopropoxy-14-pyridin-4-yl-5,6,10,11-tetrahydro-9H-[1,4]oxazocino[7′,6′:4,5]pyrrolo[2,1-a]isoquinolin-8(13H)-one]",47.9
9,"CC[S+]([O-])c1cc2c(cc1OC)CCn1c3c(c(Br)c1-2)CCCCN(C(C)(C)C)C3=O (stereo not shown) [Compound 23d, 9-tert-butyl-14-bromo-2-ethylsulfinyl-3-methoxy-5,6,10,11,12,13-hexahydroazocino[4′,3′:4,5]pyrrolo[2,1-a]isoquinolin-8(9H)-one]",245
10,"COc1cc2c(cc1OC(C)C)-c1c(-c3cccs3)c3c(n1CC2)C(=O)N(C(C)(C)C)C3 [Compound 15f, 9-tert-butyl-2-isopropoxy-3-methoxy-11-(2-thienyl)-5,6,9,10-tetrahydro-8H-pyrrolo[3′,4′:4,5]pyrrolo[2,1-a]isoquinolin-8-one]",617
11,"COc1cc2c(cc1-c1cncs1)-c1c(-c3cncs3)c3c(n1CC2)C(=O)N(C(C)(C)C)CCOC3 [Compound 11l, 9-tert-butyl-3-methoxy-2,14-di-1,3-thiazol-5-yl-5,6,10,11-tetrahydro-9H-[1,4]oxazocino[7′,6′:4,5]pyrrolo[2,1-a]isoquinolin-8(13H)-one]",12.6
12,"COc1cc2c(cc1-c1c(C)nn(C)c1C)-c1c(-c3cccs3)c3c(n1CC2)C(=O)N(C(C)C)CCN(C(C)=O)C3 [Compound 10r, 12-acetyl-9-isopropyl-3-methoxy-14-(2-thienyl)-2-(1,3,5-trimethyl-1H-pyrazol-4-yl)-5,6,10,11,12,13-hexahydro[1,4]diazocino[6′,7′:4,5]pyrrolo[2,1-a]isoquinolin-8(9H)-one]",162
13,COc1cc2c(cc1OC(C)C)-c1c(-c3cccs3)c3c(n1CC2)C(=O)N(C(C)(C)C)CCC3 [Compound 6e],11

# The next lines start with the values.
row,EC50 [nM],SMILES
1,44.7,"COc1cc2c(cc1C(=O)O)-c1c(-c3cccs3)c3c(n1CC2)C(=O)N(C(C)(C)C)CCCC3 [Compound 26b, 9-tert-butyl-3-methoxy-14-(thiophen-2-yl)-5,6,10,11,12,13-hexahydroazocino[4′,3′:4,5]pyrrolo[2,1-a]isoquinolin-8(9H)-one-2-carboxylic acid]"
2,30.2,"COc1cc2c(cc1F)-c1c(-c3cccs3)c3c(n1CC2)C(=O)N(C(C)(C)C)CCCC3 [Compound 27c, 9-tert-butyl-2-fluoro-3-methoxy-14-(thiophen-2-yl)-5,6,10,11,12,13-hexahydroazocino[4′,3′:4,5]pyrrolo[2,1-a]isoquinolin-8(9H)-one]"
3,0.589,"COc1cc2c(cc1-n1cc(CCO)nn1)-c1c(-c3cccs3)c3c(n1CC2)C(=O)N(C(C)(C)C)CCCC3 [Compound 20d, 9-tert-butyl-14-(thien-2-yl)-2-(4-(2-hydroxyethyl)-1H-1,2,3-triazol-1-yl)-3-methoxy-5,6,10,11,12,13-hexahydroazocino[4′,3′:4,5]pyrrolo[2,1-a]isoquinolin-8(9H)-one]"
4,1.82,"CCS(=O)(=O)c1cc2c(cc1OC)CCn1c3c(c(-c4cccs4)c1-2)CCCCN(C(C)(C)C)C3=O [Compound 23f, 9-tert-butyl-14-(thien-2-yl)-2-ethylsulfonyl-3-methoxy-5,6,10,11,12,13-hexahydroazocino[4′,3′:4,5]pyrrolo[2,1-a]isoquinolin-8(9H)-one]"
5,2.63,"COc1cc2c(cc1C(=O)CC[C@@H](O)CO)-c1c(-c3cccs3)c3c(n1CC2)C(=O)N(C(C)(C)C)CCCC3 [Compound 28b, (R)-9-tert-butyl-2-(4,5-dihydroxypentanoyl)-3-methoxy-14-(thiophen-2-yl)-5,6,10,11,12,13-hexahydroazocino[4′,3′:4,5]pyrrolo[2,1-a]isoquinolin-8(9H)-one]"
6,100,"COc1cc2c(cc1[N+](=O)[O-])-c1c(-c3cccs3)c3c(n1CC2)C(=O)N(C(C)(C)C)CC3 [Compound 1i, 9-tert-butyl-3-methoxy-2-nitro-12-(2-thienyl)-5,6,10,11-tetrahydropyrido[4′,3′:4,5]pyrrolo[2,1-a]isoquinolin-8(9H)-one]"
7,1.07,"COCC(O)CNC(=O)c1cc2c(cc1OC)CCn1c3c(c(-c4cccs4)c1-2)CCCCN(C(C)(C)C)C3=O (stereo not shown) [Compound 26c6, 9-tert-butyl-3-methoxy-2-(2-hydroxy-3-methoxy-1-propylaminocarbonyl)-14-(thiophen-2-yl)-5,6,10,11,12,13-hexahydroazocino[4′,3′:4,5]pyrrolo[2,1-a]isoquinolin-8(9H)-one]"
8,34.7,"COc1cc2c(cc1[N+](=O)[O-])-c1c(-c3cccs3)c3c(n1CC2)C(=O)N(C(C)(C)C)CCC3 [Compound 2h, 9-tert-butyl-2-nitro-3-methoxy-13-(2-thienyl)-5,6,9,10,11,12-hexahydro-8H-azepino[4′,3′:4,5]pyrrolo[2,1-a]isoquinolin-8-one]"
9,1.95,"COc1cc2c(cc1NS(C)(=O)=O)-c1c(-c3cccs3)c3c(n1CC2)C(=O)N(C(C)(C)C)CCCC3 [Compound 29a, 9-tert-butyl-3-methoxy-2-(methylsulfonamido)-14-(thiophen-2-yl)-5,6,10,11,12,13-hexahydroazocino[4′,3′:4,5]pyrrolo[2,1-a]isoquinolin-8(9H)-one]"
